Measured values taken from US10703733B2, “MCL-1 inhibitors” (Gilead Sciences, Inc., priority 2018, dated 2020).
Read-outs that look alike come from different tables or passages of the source.

How the values were obtained:
[1] = molecular target: MCL-1/Bim interaction (recombinant human MCL-1 protein, residues 171-327; biotinylated human Bim peptide, residues 51-76) (Homo sapiens (Human), UniProt Q07820); assay: MCL-1/Bim Binding AlphaLISA Assay; settings: 0.0625 nM 6xHis-Mcl-1 (171-327), 0.0625 nM biotinylated-Bim peptide
How it was run: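 Compounds first sat 1 h with MCL-1 (171-327, 0.0625 nM), followed by 2 h with biotin-Bim 51-76 (0.0625 nM), then sequential 1 h anti-His acceptor and streptavidin donor bead steps; buffer Hepes pH 7.5 with NaCl, Brij 35, DTT, BSA. AlphaScreen signal converted to % inhibition using DMSO (negative) and protein/peptide-free (positive) controls.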

[2] = tested on: SKBR3 cells; assay: SKBR3 Cell Viability Assay (CellTiter Glo); assay type: cell-based; settings: CellTiter Glo luminescence, read-out: MCL-1 CV SKBR3 EC50
How it was run: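 Viability read as CellTiter Glo luminescence after 72 h of compound exposure at 37° C./5% CO2, using 6,000 SKBR3 cells per well in McCoy 5A with 10% FBS. Percent inhibition scaled between DMSO wells and 10 μM puromycin wells.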

MCL-1/Bim interaction (recombinant human MCL-1 protein, residues 171-327; biotinylated human Bim peptide, residues 51-76), sequence (Q07820 171-327): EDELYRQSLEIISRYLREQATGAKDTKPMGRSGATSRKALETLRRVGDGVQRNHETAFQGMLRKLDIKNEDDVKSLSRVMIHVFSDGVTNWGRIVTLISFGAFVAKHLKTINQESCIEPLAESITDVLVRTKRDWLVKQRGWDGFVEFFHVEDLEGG

SMILES	IC50 [1]	EC50 ([2]; Homo sapiens, SK-BR-3, 72 h)	EC50 ([2]; 72 hours)
CCO[C@]1(C)C[C@H](NC(=O)N[S@@]2(=O)=NC(=O)c3ccc4c(c3)N(C[C@@H]3CC[C@H]3[C@@H](OC)/C=C/C[C@H](C)C2)C[C@@]2(CCCc3cc(Cl)ccc32)CO4)C1 [Example 225]	0.043 nM	51.3 nM	
CC[C@@H]1CC/C=C/[C@H](OC)[C@@H]2CC[C@H]2CN2C[C@@]3(CCCc4cc(Cl)ccc43)COc3ccc(cc32)C(=O)N=S1(=O)NC(=O)CCc1ccnn1C (single isomer, unassigned) [Example 71]	0.7 nM		1390 nM
CO[C@H]1/C=C/C[C@H](C)C[S@@](=O)(NC(=O)N2CC3(COCCO3)C2)=NC(=O)c2ccc3c(c2)N(C[C@@H]2CC[C@H]21)C[C@@]1(CCCc2cc(Cl)ccc21)CO3 [Example 248]	0.042 nM	55.3 nM	
CO[C@H]1/C=C/CCC[S@@](=O)(NC(=O)CCc2nnc(C)s2)=NC(=O)c2ccc3c(c2)N(C[C@@H]2CC[C@H]21)C[C@@]1(CCCc2cc(Cl)ccc21)CO3 [Example 102]	0.3 nM	891 nM	
CO[C@H]1/C=C/C[C@H](C)C[S@@](=O)(NC(=O)N2CC3(CCO3)C2)=NC(=O)c2ccc3c(c2)N(C[C@@H]2CC[C@H]21)C[C@@]1(CCCc2cc(Cl)ccc21)CO3 [Example 230]	0.027 nM	47.1 nM	
CO[C@H]1/C=C/C[C@H](C)C[S@@](=O)(NC(=O)N[C@@H]2C[C@H]2OC)=NC(=O)c2ccc3c(c2)N(C[C@@H]2CC[C@H]21)C[C@@]1(CCCc2cc(Cl)ccc21)CO3 (single isomer, unassigned) [Example 196]	0.04 nM		99.2 nM
CCC(=O)N[S@@]1(=O)=NC(=O)c2ccc3c(c2)N(C[C@@H]2CC[C@H]2[C@@H](OCCN2CCN(C)CC2)/C=C/CCC1)C[C@@]1(CCCc2cc(Cl)ccc21)CO3 [Example 68]	46.9 nM	6300 nM	
CO[C@H]1/C=C/CCC[S@@](=O)(NC(=O)NC(C)(C)C(F)(F)F)=NC(=O)c2ccc3c(c2)N(C[C@@H]2CC[C@H]21)C[C@@]1(CCCc2cc(Cl)ccc21)CO3 [Example 34]	2 nM	3350 nM	
CO[C@H]1/C=C/CCC[S@@](=O)(NC(=O)C#CC(C)(C)C)=NC(=O)c2ccc3c(c2)N(C[C@@H]2CC[C@H]21)C[C@@]1(CCCc2cc(Cl)ccc21)CO3 [Example 36]	8.1 nM	10000 nM	
CO[C@H]1/C=C/CCC[S@](=O)(NC(=O)[C@@H]2C[C@H]2c2ccnn2C)=NC(=O)c2ccc3c(c2)N(C[C@@H]2CC[C@H]21)C[C@@]1(CCCc2cc(Cl)ccc21)CO3 [Example 84]	0.1 nM		783 nM
CO[C@H]1/C=C/CCC[S@@](=O)(NC(=O)CCC2CC2)=NC(=O)c2ccc3c(c2)N(C[C@@H]2CC[C@H]21)C[C@@]1(CCCc2cc(Cl)ccc21)CO3 [Example 81]	0.5 nM	612 nM	
CCC(=O)N[S@@]1(=O)=NC(=O)c2ccc3c(c2)N(C[C@@H]2CC[C@H]2[C@@H](OC)/C=C/C[C@H](C)[C@H]1C)C[C@@]1(CCCc2cc(Cl)ccc21)CO3 [Example 2]	1.5 nM	792 nM	
CO[C@H]1/C=C/C[C@H](C)C[S@@](=O)(NC(=O)N[C@H]2C[C@@H]2C(F)(F)F)=NC(=O)c2ccc3c(c2)N(C[C@@H]2CC[C@H]21)C[C@@]1(CCCc2cc(Cl)ccc21)CO3 [Example 243]	0.059 nM	41.7 nM	
COc1cn(C)nc1C(=O)O[C@H]1/C=C/[C@H](OC)[C@@H]2CC[C@H]2CN2C[C@@]3(CCCc4cc(Cl)ccc43)COc3ccc(cc32)C(=O)N=[S@](=O)(NC(=O)c2cn(C)nc2OC)CC1 [Example 391]	0.702 nM		4560 nM
CO[C@H]1/C=C/C[C@H](C)[C@@H](C)[S@@](=O)(NC(=O)CO[C@H]2CCOC[C@H]2F)=NC(=O)c2ccc3c(c2)N(C[C@@H]2CC[C@H]21)C[C@@]1(CCCc2cc(Cl)ccc21)CO3 [Example 133]	0.051 nM	130 nM	
CO[C@H]1/C=C/C[C@H](C)C[S@@](=O)(NC(=O)c2cc3n(c2)CCOC3)=NC(=O)c2ccc3c(c2)N(C[C@@H]2CC[C@H]21)C[C@@]1(CCCc2cc(Cl)ccc21)CO3 [Example 139]	0.116 nM	94.1 nM	
CO[C@H]1/C=C/CCC[S@@](=O)(NC(=O)CCc2ccco2)=NC(=O)c2ccc3c(c2)N(C[C@@H]2CC[C@H]21)C[C@@]1(CCCc2cc(Cl)ccc21)CO3 [Example 88]	1.5 nM	2570 nM	
COc1c(C(=O)N[S@@]2(=O)=NC(=O)c3ccc4c(c3)N(C[C@@H]3CC[C@H]3[C@@H](OC)/C=C/C[C@H](C)C2)C[C@@]2(CCCc3cc(Cl)ccc32)CO4)cn2c1COCC2 [Example 191]	0.103 nM	123 nM	
CO[C@H]1/C=C/CCC[S@@](=O)(NC(C)=O)=NC(=O)c2ccc3c(c2)N(C[C@@H]2CC[C@H]21)C[C@@]1(CCCc2cc(Cl)ccc21)CO3 [Example 25]	0.6 nM	2010 nM	
CO[C@H]1/C=C/C[C@H](C)C[S@@](=O)(NC(=O)N2CC(C(C)(C)O)C2)=NC(=O)c2ccc3c(c2)N(C[C@@H]2CC[C@H]21)C[C@@]1(CCCc2cc(Cl)ccc21)CO3 [Example 237]	0.044 nM	121 nM	

Continued, values first:

IC50 [1]	EC50 ([2]; Homo sapiens, SK-BR-3, 72 h)	EC50 ([2]; 72 hours)	SMILES
0.129 nM	260 nM		CNC1CN(C(=O)N[S@@]2(=O)=NC(=O)c3ccc4c(c3)N(C[C@@H]3CC[C@H]3[C@@H](OC)/C=C/C[C@H](C)C2)C[C@@]2(CCCc3cc(Cl)ccc32)CO4)C1 [Example 294]
0.149 nM	176 nM		CO[C@H]1/C=C/C[C@H](C)C[S@@](=O)(NC(=O)[C@@]23COCC2C3)=NC(=O)c2ccc3c(c2)N(C[C@@H]2CC[C@H]21)C[C@@]1(CCCc2cc(Cl)ccc21)CO3 (some centres unmarked) [Example 446]
0.084 nM	79.8 nM		CO[C@H]1CCN(C(=O)N[S@@]2(=O)=NC(=O)c3ccc4c(c3)N(C[C@@H]3CC[C@H]3[C@@H](OC)/C=C/C[C@H](C)C2)C[C@@]2(CCCc3cc(Cl)ccc32)CO4)C1 [Example 347]
0.088 nM	140 nM		COC(=O)[C@]1(C)C[C@H](NC(=O)N[S@@]2(=O)=NC(=O)c3ccc4c(c3)N(C[C@@H]3CC[C@H]3[C@@H](OC)/C=C/C[C@H](C)C2)C[C@@]2(CCCc3cc(Cl)ccc32)CO4)C1 [Example 305]
0.072 nM	179 nM		CO[C@H]1/C=C/C[C@H](C)C[S@@](=O)(NC(=O)C2Cc3cccnc3C2)=NC(=O)c2ccc3c(c2)N(C[C@@H]2CC[C@H]21)C[C@@]1(CCCc2cc(Cl)ccc21)CO3 (some centres unmarked) [Example 412]
0.058 nM	530 nM		COc1nn(C)cc1C(=O)N[S@@]1(=O)=NC(=O)c2ccc3c(c2)N(C[C@@H]2CC[C@H]2[C@@H](OC)/C=C/[C@H](OC(F)F)[C@H](C)C1)C[C@@]1(CCCc2cc(Cl)ccc21)CO3 [Example 400]
0.041 nM	61.7 nM		CO[C@H]1/C=C/C[C@H](C)C[S@@](=O)(NC(=O)N2CCN(CC#N)CC2)=NC(=O)c2ccc3c(c2)N(C[C@@H]2CC[C@H]21)C[C@@]1(CCCc2cc(Cl)ccc21)CO3 [Example 270]
0.061 nM	54.7 nM		CO[C@H]1/C=C/C[C@H](C)C[S@@](=O)(NC(=O)c2cc(CN3CCN(C(C)C)[C@H](C)C3)n(C)c2)=NC(=O)c2ccc3c(c2)N(C[C@@H]2CC[C@H]21)C[C@@]1(CCCc2cc(Cl)ccc21)CO3 [Example 284]
0.051 nM	284 nM		CO[C@H]1/C=C/C[C@H](C)C[S@@](=O)(NC(=O)N[C@@H]2CC2(F)F)=NC(=O)c2ccc3c(c2)N(C[C@@H]2CC[C@H]21)C[C@@]1(CCCc2cc(Cl)ccc21)CO3 [Example 440]
0.194 nM	146 nM		C[C@H]1C/C=C/[C@H](OCC2CC2)[C@@H]2CC[C@H]2CN2C[C@@]3(CCCc4cc(Cl)ccc43)COc3ccc(cc32)C(=O)N=[S@](=O)(NC(=O)c2cnn(C)c2)C1 [Example 410]
0.056 nM	85.8 nM		COc1nn(C2CC2)cc1C(=O)N[S@@]1(=O)=NC(=O)c2ccc3c(c2)N(C[C@@H]2CC[C@H]2[C@@H](OC)/C=C/C[C@H](C)C1)C[C@@]1(CCCc2cc(Cl)ccc21)CO3 [Example 262]
0.029 nM	44.4 nM		CO[C@H]1/C=C/C[C@H](C)C[S@@](=O)(NC(=O)N2C[C@H](OC)[C@H]2C)=NC(=O)c2ccc3c(c2)N(C[C@@H]2CC[C@H]21)C[C@@]1(CCCc2cc(Cl)ccc21)CO3 [Example 250]
0.162 nM	161 nM		COC[C@@H]1CCN(C(=O)N[S@@]2(=O)=NC(=O)c3ccc4c(c3)N(C[C@@H]3CC[C@H]3[C@@H](OC)/C=C/C[C@H](C)C2)C[C@@]2(CCCc3cc(Cl)ccc32)CO4)C1 [Example 256]
0.035 nM	36.6 nM		COC1CCN(C(=O)N[S@@]2(=O)=NC(=O)c3ccc4c(c3)N(C[C@@H]3CC[C@H]3[C@@H](OC)/C=C/C[C@H](C)C2)C[C@@]2(CCCc3cc(Cl)ccc32)CO4)CC1 [Example 320]
0.217 nM	154 nM		CO[C@H]1/C=C/C[C@H](C)[C@@H](C)[S@@](=O)(NC(=O)NC2CC2)=NC(=O)c2ccc3c(c2)N(C[C@@H]2CC[C@H]21)C[C@@]1(CCCc2cc(Cl)ccc21)CO3 [Example 414]
0.045 nM	22.8 nM		COC[C@H]1C[C@@H]1NC(=O)N[S@@]1(=O)=NC(=O)c2ccc3c(c2)N(C[C@@H]2CC[C@H]2[C@@H](OC)/C=C/C[C@H](C)C1)C[C@@]1(CCCc2cc(Cl)ccc21)CO3 [Example 303]
0.057 nM	64.4 nM		CO[C@@H]1CC[C@@H](NC(=O)N[S@@]2(=O)=NC(=O)c3ccc4c(c3)N(C[C@@H]3CC[C@H]3[C@@H](OC)/C=C/C[C@H](C)C2)C[C@@]2(CCCc3cc(Cl)ccc32)CO4)C1 [Example 322]
